Laboratory results reported in patent publication US20260109732A1, “LIPID AMINES” (ModernaTX, Inc., priority 2021, published 2026).
Structures can show the parent of a compound that is named as a salt.

Tests used:
HeLa cells [1] = test: Luciferase Protein Expression Assay in HeLa Cells; format: cell-based, Human; conditions: LNPs encapsulating Luciferase mRNA, 25 ng per well, N=4 wells; 5 h serum-free then 24 h; ONE-Glo
Procedure: For HeLa studies evaluating luciferase protein expression, PEG-DMG-2K dissolved in a 20 mM TRIS buffer (pH 7.5) is added to the neutralized intermediate nanoparticle solution at a ratio of 1:6, bringing the solution to the final molar ratios of IL1:DSPC:cholesterol:PEG-DMG-2K of 48.5:11.1:38.9:1.5%. This nanoparticle formulation is then modified with lipid amines. In a typical example, nanoparticle formulation at a concentration of 0.18 mg/mL mRNA and a 0.56 mL volume is modified with lipid amine SA50 (467.2 nmol) prepared in buffer containing 20 mM TRIS, 14.3 mM sodium acetate, 32 g/L sucrose and 140 mM NaCl-pH 7.5 at a volumetric ratio of 1:1 of nanoparticle:buffer.
Lipid nanoparticle compositions were prepared in a manner analogous to that in example 2. To evaluate LNP cellular uptake and protein expression In Vitro, HeLa cells from ATCC.org (ATCC CCL-2) are used. The cells are cultured in complete Minimum Essential Medium (MVEM) and are plated in 96 well Cell Carrier Ultra plate with PDL coated surface (PerkinElmer) prior to running an experiment.
Cells were transfected with buffer control (PBS) or LNPs encapsulating Luciferase mRNA (25 ng per well; N=4 replicate wells) in serum-free MEM media. LNP transfected cells were incubated for 5 h, followed by media removal and supplementation with complete MEM media. Cells were further incubated in complete MEM media overnight (24 h). Following the 24 hr incubation, luciferase protein expression was measured using the ONE-Glo™ Luciferase Assay (Promega). Cells were lysed using 1× Passive Lysis Buffer (Cat. #E194A) for 10 min in a microplate mixer at room temperature. Luciferase in the supernatant was measured by adding Luciferase Assay Reagent (Cat. #E151A) containing luciferin. Bioluminescence was then immediately measured on a Synergy H1 plate reader (BioTek). The results shown in Table 3a show the Average Relative Light Units (RLU) of each sample tested.

[2] = Diameter and PDI from DLS measurements of mRNA nanoparticles with lipid amines; format: physicochemical
Outline: (§1)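 DLS gave size and PDI, and Ribogreen gave encapsulation, for luciferase- or CFTR-mRNA nanoparticles (N:P 4.93). Particles came from IL1/DSPC/cholesterol/PEG-DMG-2K mixed at pH 4, mRNA-loaded, neutralized with TRIS pH 8.12, and then treated with lipid amine SA50 in pH 7.5 buffer.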

HeLa cells [3] = test: CFTR Protein Expression Assay in HeLa Cells; format: cell-based, Human; conditions: LNPs encapsulating CFTR mRNA, N=4 wells; 5 h serum-free then 24 h; immunofluorescence vs PBS control
Outline: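 Readout is fold-change in per-cell CFTR immunofluorescence intensity (488 nm, confocal imaging) relative to PBS-treated cells, from 4 replicate wells. LNPs encapsulating CFTR mRNA were applied serum-free for 5 h, followed by 24 h in complete medium before PFA fixation.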

[4] = Encapsulation of mRNA nanoparticles with lipid amines using Ribogreen assay; format: physicochemical
Outline: as §1

[5] = CFTR mRNA nanoparticle with lipid amine
[6] = Luciferase mRNA nanoparticle modified with lipid amine

| Structure (SMILES) | Average Relative Light Units ± Standard Deviation (HeLa cells [1]) [Relative Light Units] | Diameter (nm) [2, 5] [nm] | PDI [2, 5] | Diameter (nm) [2, 6] [nm] | PDI [2, 6] | Average fold-change in CFTR signal intensity per cell compared to buffer control ± standard deviation (HeLa cells [3]) [fold-change] | % Encapsulation (Ribogreen) [4, 5] [%] | % Encapsulation (Ribogreen) [4, 6] [%] |
| --- | --- | --- | --- | --- | --- | --- | --- | --- |
| CC(C)CCC[C@@H](C)[C@H]1CC[C@H]2[C@@H]3CC=C4C[C@@H](OC(=O)N(CCCCNCCC(C)(C)N)CCC(C)(C)N)CC[C@]4(C)[C@H]3CC[C@]12C [SA78, (3S,8S,9S,10R,13R,14S,17R)-10,13-dimethyl-17-((R)-6-methylheptan-2-yl)-2,3,4,7,8,9,10,11,12,13,14,15,16,17-tetradecahydro-1H-cyclopenta[a]phenanthren-3-yl (3-amino-3-methylbutyl)(4-((3-amino-3-methylbutyl)amino)butyl)carbamate trihydrochloride] | 14341.8 ± 3497.6 | 87.7 | 0.17 | 76 | 0.20 | 11.3 ± 0.7 | 100 | 99.8 |
| CC(C)CCC[C@@H](C)[C@H]1CC[C@H]2[C@@H]3CC=C4C[C@@H](OC(=O)N(CCCN)CCCCCCCCCCN)CC[C@]4(C)[C@H]3CC[C@]12C [SA95, (3S,8S,9S,10R,13R,14S,17R)-10,13-Dimethyl-17-((R)-6-methylheptan-2-yl)-2,3,4,7,8,9,10,11,12,13,14,15,16,17-tetradecahydro-1H-cyclopenta[a]phenanthren-3-yl (10-aminodecyl)(3-aminopropyl)carbamate dihydrochloride] | 22952.2 ± 5937.7 | 83.6 | 0.14 | 75 | 0.20 | 4.2 ± 0.8 | 99.3 | 99.7 |
| CCC(N)(CC)CCNCCCCN(CCC(N)(CC)CC)C(=O)O[C@H]1CC[C@@]2(C)C(=CC[C@H]3[C@@H]4CC[C@H]([C@H](C)CCCC(C)C)[C@@]4(C)CC[C@@H]32)C1.Cl.Cl.Cl [SA133, (3S,8S,9S,10R,13R,14S,17R)-10,13-dimethyl-17-((R)-6-methylheptan-2-yl)-2,3,4,7,8,9,10,11,12,13,14,15,16,17-tetradecahydro-1H-cyclopenta[a]phenanthren-3-yl (3-amino-3-ethylpentyl)(4-((3-amino-3-ethylpentyl)amino)butyl)carbamate trihydrochloride] | 26696.2 ± 5831.4 | 73.5 | 0.11 | 73 | 0.17 | 18.5 ± 0.8 | 99.4 | 99.0 |
| CC(C)CCC[C@@H](C)[C@H]1CC[C@H]2[C@@H]3CC=C4C[C@@H](OC(=O)N(CCCCNC(C)CC(C)N)C(C)CC(C)N)CC[C@]4(C)[C@H]3CC[C@]12C.Cl.Cl.Cl (stereo partly drawn) [SA126, (3S,8S,9S,10R,13R,14S,17R)-10,13-dimethyl-17-((R)-6-methylheptan-2-yl)-2,3,4,7,8,9,10,11,12,13,14,15,16,17-tetradecahydro-1H-cyclopenta[a]phenanthren-3-yl (4-aminopentan-2-yl)(4-((4-aminopentan-2-yl)amino)butyl)carbamate trihydrochloride] | 31706.7 ± 7386.3 | 79.3 | 0.15 | 75 | 0.18 | 18.2 ± 2.0 | 99.4 | 99.7 |
| CC[C@H](CC[C@@H](C)[C@H]1CC[C@H]2[C@@H]3CC=C4C[C@@H](SSCCC(=O)N(CCCCNCCC(N)(CC)CC)CCC(N)(CC)CC)CC[C@]4(C)[C@H]3CC[C@]12C)C(C)C [SA181, N-(3-amino-3-ethylpentyl)-N-(4-((3-amino-3-ethylpentyl)amino)butyl)-3-(((3S,8S,9S,10R,13R,14S,17R)-17-((2R,5R)-5-ethyl-6-methylheptan-2-yl)-10,13-dimethyl-2,3,4,7,8,9,10,11,12,13,14,15,16,17-tetradecahydro-1H-cyclopenta[a]phenanthren-3-yl)disulfaneyl)propanamide trihydrochloride] | 12107.3 ± 1481.4 | 69 | 0.13 | 74 | 0.16 | 6.3 ± 0.4 | 98.7 | 99.5 |
| CC[C@H](CC[C@@H](C)[C@H]1CC[C@H]2[C@@H]3CC=C4C[C@@H](OC(=O)N(CCCCNCCC(N)(CC)CC)CCC(N)(CC)CC)CC[C@]4(C)[C@H]3CC[C@]12C)C(C)C [SA183, (3S,8S,9S,10R,13R,14S,17R)-17-((2R,5R)-5-ethyl-6-methylheptan-2-yl)-10,13-dimethyl-2,3,4,7,8,9,10,11,12,13,14,15,16,17-tetradecahydro-1H-cyclopenta[a]phenanthren-3-yl (3-amino-3-ethylpentyl)(4-((3-amino-3-ethylpentyl)amino)butyl)carbamate trihydrochloride] | 33915.2 ± 6639.9 | 71 | 0.14 | 76 | 0.21 | 13.6 ± 0.7 | 99.0 | 99.6 |
| CC(C)CCC[C@@H](C)[C@H]1CC[C@H]2[C@@H]3CC=C4C[C@@H](SSCCCCC(=O)N(CCCN)CCCCCCCCN)CC[C@]4(C)[C@H]3CC[C@]12C [SA110, N-(8-Aminooctyl)-N-(3-aminopropyl)-5-(((3S,8S,9S,10R,13R,14S,17R)-10,13-dimethyl-17-((R)-6-methylheptan-2-yl)-2,3,4,7,8,9,10,11,12,13,14,15,16,17-tetradecahydro-1H-cyclopenta[a]phenanthren-3-yl)disulfaneyl)pentanamide dihydrochloride] | 14227 ± 2513.9 | 84.2 | 0.15 | 70 | 0.14 | 4.0 ± 0.2 | 98.8 | 98.8 |
